Activity calls are given as the source filed them. No cut-off for these calls is given here.
Tests used:
PBMC = assay: Immunostimulatory activity in human PBMC assessed as increase in IL-6 release at 10 uM after 24 hrs by ELISA; type: functional
[1] = target: Toll-like receptor 4 (Homo sapiens) (UniProt O00206); assay: Agonist activity at human TLR4 expressed in HEK-blue cells coexpressing MD2 at 0.99 10^-5M by SEAP reporter gene assay; type: cell-based
[2] = target: Toll-like receptor 4 (Homo sapiens) (UniProt O00206); assay: Agonist activity at human TLR4 expressed in HEK-blue cells coexpressing MD2 at 500 ng/ml by SEAP reporter gene assay relative to MPLA; type: cell-based
[3] = target: Toll-like receptor 4 (Homo sapiens) (UniProt O00206); assay: Agonist activity at human TLR4 expressed in HEK-blue cells coexpressing MD2 at 1.07 10^-5M by SEAP reporter gene assay relative to MPLA; type: cell-based
[4] = target: Toll-like receptor 4 (Homo sapiens) (UniProt O00206); assay: Agonist activity at human TLR4 expressed in HEK-blue cells coexpressing MD2 at 1.07 10^-5M by SEAP reporter gene assay; type: cell-based
[5] = target: Toll-like receptor 4 (Homo sapiens) (UniProt O00206); assay: Agonist activity at human TLR4 expressed in HEK-blue cells coexpressing MD2 at 1.06 10^-5M by SEAP reporter gene assay relative to MPLA; type: cell-based
[6] = target: Toll-like receptor 4 (Homo sapiens) (UniProt O00206); assay: Agonist activity at human TLR4 expressed in HEK-blue cells coexpressing MD2 at 1.15 10^-5M by SEAP reporter gene assay; type: cell-based
[7] = target: Toll-like receptor 4 (Homo sapiens) (UniProt O00206); assay: Agonist activity at human TLR4 expressed in HEK-blue cells coexpressing MD2 at 1.11 10^-5M by SEAP reporter gene assay relative to MPLA; type: cell-based
[8] = target: Toll-like receptor 4 (Homo sapiens) (UniProt O00206); assay: Agonist activity at human TLR4 expressed in HEK-blue cells coexpressing MD2 at 1.11 10^-5M by SEAP reporter gene assay; type: cell-based

Sequence of Toll-like receptor 4 (Homo sapiens) (O00206 whole entry): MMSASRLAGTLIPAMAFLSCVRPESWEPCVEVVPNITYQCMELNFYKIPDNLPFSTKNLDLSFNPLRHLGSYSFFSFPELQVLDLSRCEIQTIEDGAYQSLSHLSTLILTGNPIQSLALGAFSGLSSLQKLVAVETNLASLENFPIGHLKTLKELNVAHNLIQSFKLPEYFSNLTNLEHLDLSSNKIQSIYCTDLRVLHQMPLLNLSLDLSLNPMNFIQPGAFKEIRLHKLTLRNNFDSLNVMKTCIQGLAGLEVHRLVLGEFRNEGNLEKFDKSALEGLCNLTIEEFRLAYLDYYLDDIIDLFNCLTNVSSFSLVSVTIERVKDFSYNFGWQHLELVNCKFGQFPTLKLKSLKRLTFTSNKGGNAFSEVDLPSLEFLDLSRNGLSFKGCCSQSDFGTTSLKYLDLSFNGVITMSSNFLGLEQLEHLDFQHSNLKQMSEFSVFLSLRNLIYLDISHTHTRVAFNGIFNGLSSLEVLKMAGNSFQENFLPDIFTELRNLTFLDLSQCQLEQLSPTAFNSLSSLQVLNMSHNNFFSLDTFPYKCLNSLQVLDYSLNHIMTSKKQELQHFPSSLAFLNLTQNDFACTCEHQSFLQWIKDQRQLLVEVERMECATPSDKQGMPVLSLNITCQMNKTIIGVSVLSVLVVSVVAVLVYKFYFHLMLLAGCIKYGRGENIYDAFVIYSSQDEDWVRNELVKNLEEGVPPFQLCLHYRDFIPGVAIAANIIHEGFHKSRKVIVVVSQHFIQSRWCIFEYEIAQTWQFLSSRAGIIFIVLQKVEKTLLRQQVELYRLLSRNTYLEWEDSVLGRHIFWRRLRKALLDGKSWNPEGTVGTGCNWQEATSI

| SMILES | Activity (PBMC) | other results |
| --- | --- | --- |
| CC(C)CNC(=O)CCN1C(=O)C2C3c4ccccc4C(c4ccccc43)C2C1=O (stereo not drawn) | inactive | – |
| O=C(CCN1C(=O)C2C3c4ccccc4C(c4ccccc43)C2C1=O)NC1CCCCCCC1 (stereo not drawn) | 212.56 pg/mL | – |
| CC(C)(C)NC(=O)CCN1C(=O)C2C3c4ccccc4C(c4ccccc43)C2C1=O (stereo not drawn) | inactive | – |
| O=C(CCN1C(=O)C2C3c4ccccc4C(c4ccccc43)C2C1=O)NC1CCCCC1 (stereo not drawn) | inactive | – |
| O=C(CCN1C(=O)C2C3c4ccccc4C(c4ccccc43)C2C1=O)NCc1ccc(Cl)c(Cl)c1 (stereo not drawn) | inactive | Activity [1]: inactive |
| O=C(CCN1C(=O)C2C3c4ccccc4C(c4ccccc43)C2C1=O)NC1CCCCCC1 (stereo not drawn) | 7.3 pg/mL | – |
| CC(=O)Nc1ccc(-c2ccc(N3C(=O)C4C5c6ccccc6C(c6ccccc65)C4C3=O)cc2)cc1 (stereo not drawn) | – | Activity [2]: 30% |
| COc1ccc(CNC(=O)CCN2C(=O)C3C4c5ccccc5C(c5ccccc54)C3C2=O)cc1 (stereo not drawn) | 219.76 pg/mL | Activity [3]: 50%; Activity [4]: Active |
| O=C(CCN1C(=O)C2C3c4ccccc4C(c4ccccc43)C2C1=O)NCc1ccc(Cl)cc1 (stereo not drawn) | 0.725 pg/mL | Activity [5]: 50% |
| O=C(CCN1C(=O)C2C3c4ccccc4C(c4ccccc43)C2C1=O)NCc1ccccc1 (stereo not drawn) | inactive | Activity [6]: inactive |
| Cc1ccc(CNC(=O)CCN2C(=O)C3C4c5ccccc5C(c5ccccc54)C3C2=O)cc1 (stereo not drawn) | 5.76 pg/mL | Activity [7]: 50%; Activity [8]: Active |

From ChEMBL document CHEMBL4145516, “Rational design of novel TLR4 ligands by in silico screening and their functional and structural characterization in vitro” (2018)
